Test results from US10370359B2, “Process for the preparation of crystalline dexlansoprazole” (DIPHARMA FRANCIS S.r.l., priority 2017, dated 2019).
Read-outs that look alike come from different tables or passages of the source.

Tests used:
[1] = assay type: physicochemical; conditions: for purity of the samples, 24 h: after 24 hours at 70° C. in an oven; for purity of the samples, 24 h / purity of the samples, 48 h / purity of the samples, 72 h / purity of the samples, 0 h: HPLC at 285 nm; for purity of the samples, 48 h: after 48 hours at 70° C. in an oven; for purity of the samples, 72 h: after 72 hours at 70° C. in an oven; for purity of the samples, 0 h: time 0, before heating at 70° C.
Method: The samples of crystalline anhydrous dexlansoprazole prepared according to the method of the present invention (new method) and those made according to the method of U.S. Pat. No. 8,314,241 (present Example 4) are heated in an oven at 70° C.
After 24, 48 and 72 hours, samples are taken and analyzed by HPLC at a wavelength of 285 nm.

[2] = Thermal stability of dexlansoprazole in solution (dispersion), HPLC; assay type: physicochemical; conditions: dispersion 14 hours at 45° C., distillation at 50° C. at reduced pressure, further 14 hours at 45° C.; not present at time 0
Method: In order to establish the thermal stability of dexlansoprazole the dispersion of dexlansoprazole was heated for 14 hours at 45° C., then a distillation at 50° C. at reduced pressure was performed and finally the dispersion was kept for further 14 hours at 45° C.
The color of the resulting dispersion turned into a slight yellow.

[3] = listed as crystalline anhydrous dexlansoprazole prepared with the procedure of the present

decrease of the concentration of crystalline anhydrous dexlansoprazole ([1]; 70° C. for 72 hours, Area % HPLC at 285 nm) | purity of the samples, 24 h [1] | purity of the samples, 48 h [1] | purity of the samples, 72 h [1] | purity of the samples, 72 h [1, 3] | purity of the samples, 0 h [1] | purity of the samples, 0 h [1, 3] | increase of the contents of all the impurities ([1]; after 24 hours at 70° C.) | increase of the contents of all the impurities ([1]; after 72 hours at 70° C.) | content of impurity of formula (I) formed [2] | Structure (SMILES)
less than 0.1% | 99.95% | 99.93% | 99.93% | 99.93% | 99.96% | 99.96% | – | – | – | Cc1c(OCC(F)(F)F)ccnc1C[S@@+]([O-])c1nc2ccccc2[nH]1 [Method of the present invention]
– | 99.28% | 99.09% | 98.91% | – | 99.51% | – | more than 0.2% | 0.60% | – | Cc1c(OCC(F)(F)F)ccnc1C[S@@+]([O-])c1nc2ccccc2[nH]1 [U.S. Pat. No. 8,314,241]
– | – | – | – | – | – | – | – | – | 0.03% | Cc1c(OCC(F)(F)F)ccnc1C[S@@+]([O-])c1nc2ccccc2[nH]1 [dexlansoprazole]
